Key:
[1] = system: HEK-N/F cells; experiment: Protection of cells from oxidative damage induced by t-butylhydroperoxide; format: cell-based, human; settings: 1.5 mM t-butylhydroperoxide 3 hours
Description: t-butylhydroperoxide is metabolized into a free radical intermediate as it comes in a cell, so that it causes lipid peroxidation, resulting in cell damage. This phenomenon is similar to that caused by oxidataive stress accumulated in cells and tissues. […] HEK-N/F, an epidermal cell line of a newborn baby, was treated with 1.5 mM of t-butylhydroxyperoxide for 3 hours.

[2] = system: back skin of SKH-1 hairless mouse; experiment: Protection of skin tissues from UVB irradiation in hairless mice; format: in vivo
Description: 5-6 week old female hairless mice (SKH-hr 1) were raised for 14 days at 24±2° C. with 50±10% relative humidity and 12 hour day/night cycle. 30-60 minutes before the experiment, a sample was hyperdermically injected on 5 spots of the mice and the backs of the mice were irradiated by UVB. 5 mice per each group were put in a cage (20×15×5 cm) and UVB irradiation was performed using a UV lamp (HP-15M, 280-400 nm, max. 312 nm; Atto Co., Japan) at 15 cm distance by 15 kJ/m^2. After the completion of UV irradiation for 24 hours, back skin was cut and stored at −70° C. until peroxidation was measured.
UVB irradiation causes serious lipid peroxidation in skin tissues, so measurement of the peroxided lipid content might lead to the measurement of skin damages. Particularly, UVB was irradiated on the back skin of SKH-1 hairless mouse. 48 hours later, the back skin tissues were cut to measure lipid peroxidation by thiobarbituric acid (TBA) method. The back skin of the mouse was put in a 10×50 mM K-P buffer solution for homogenation.
Hydrogen peroxidation was also investigated. The frozen back skin section was put in 0.1 M Tris-HCl buffer solution (pH 7.5) containing 1 mg/ml of glucose and 1 mg/ml diaminobenzidine (DAB), which was cultured at 37° C. for 5-6 hours. After being washed with distilled water, the solution was stained with 2% methyl green for 60 minutes. Nucleus stained blue and DAB peroxidase (brown) were observed under a microscope.

[3] = system: HEK-N/F cells; experiment: Prolongation of life span of a cell; format: cell-based, human; settings: 3 μg/ml during culture
Description: HEK-N/F cells were obtained from foreskin of a newborn baby after its fibroblasts, another major component of skin, were treated with uridine bromide. Then, the cells were cultured in DMEM medium supplemented with 10 FBS. HEK-N/F cells were diluted consecutively at the ratio of 1:4 during the culture. Before being treated with samples, the cells were grown up to 3 PDL (population doubling level). During the culture, each sample was administered by […]. Medium was replaced every three days by fresh medium supplemented with a culture solution containing the equal concentration of the sample.

[4] = system: HEK-N/F cells; experiment: Cell protection from UV irradiation (DNA damage, ethidium homodimer fluorescence); format: cell-based, human; settings: 35 mJ/cm^2 UVB, Et2 fluorescence (DNA damage)
Description: UV irradiation induces DNA damage and DNA-protein connection by increasing active oxygen in cells. When HEK-N/F cells were irradiated by 35 mJ/cm^2 of UVB, DNA chains in nucleus were cut. After uniting the broken chains to ethidium homodimer (Et2), a DNA chain intercalating fluorescent dye, extent of fluorescence was measured to quantify the amount of DNA damage. Particularly, HEK-N/F cells were cultured on serum-free KGM medium (Clonetics), which were inoculated into wells of a 24-well plate by 0.5−4×10^4 cells/2 cm^2. Then, the cells were cultured for 18 hours, after which a sample was treated thereto for 2 hours. […] The cells exposed on UV were further cultured for 1-7 hours, and then, […] ethidium homodimer (Et2, Millipore) was added. 30 minutes later, fluorescence was measured with Millipore microplate fluorometer Cytofluor 2350 (excitation: 485 nm, emission: 645 nm).

[5] = system: HEK-N/F cells; experiment: Telomere length / maximum PDL (Southern blot of TRFs); format: cell-based, human
Description: In the above Example 8, an extract of […] chinensis and active ingredients separated from the same were confirmed to have an effect of prolongation of life span of a cell. Thus, in this example, relation between the effect of prolongation of life span and the length of a telomere was investigated. Particularly, genomic DNA was extracted from each cell of different ages by using a nucleic acid extraction kit (Isoquick Nucleic Acid Extraction kit, ORCA Research Inc.), which was stored at 4° C. after being dissolved in Tris-EDTA solution (10 mM Tris-HCl, 1 mM EDTA, pH 8.0). 2 μl of 10×H buffer solution (TaKaRa), 2 μl of the extracted genomic DNA solution and distilled water were all mixed in a 1.5 ml tube, making final volume 19 μl. Then, 1 μl at of restriction enzyme […]) was added thereto. […] Then, the gel was immersed in 0.25 N HCl, followed by shaking for 15 minutes. The gel was washed twice with distilled water. This gel was dipped into denaturing solution (0.2 N NaOH, 0.6 M NaCl), followed by shaking for 25 minutes at room temperature. And then, the gel was washed three times with distilled water. On a blotting device filled with 6×SSC, nitrocellulose membrane (Optitran BA-S 85, Schleicher & Schuel), 3 mm filter paper, paper towel, glass plate and weight (2 kg) were loaded in that order, followed by blotting overnight. After the blotting was finished, membrane filter was soaked in 3×SSC, and then water was discarded smoothly. The positions of the wells on the membrane were marked. The membrane was placed between filter papers, followed by baking at 80° C. for overnight. […] After being dried, the membrane was covered with wrap and set in a cassette on which X-ray film (Scientific Imaging Film, Kodak) and intensifying screen were attached. Autoradiography was performed at -80° C. for overnight. Based on the developed film and the location of the membrane, the positions of the wells were marked by a magic pen. The density peak of TRFs was detected by a laser densitometer (UltroScan XL, Pharmacia) and its mobility was calculated.

With `Oc1cc(O)cc(/C=C/c2ccc(O)c(O)c2)c1` [Chemical Formula 5, piceatannol] the “Cell survival rate (%)” value [1] was 84.7±6.9%, the “TBARS (pmol/mg protein)” value ([1]; compound 50.0 µg/ml) was 520.2 ± 60.7 pmol/mg protein and the “TBARS (nmol/mg protein)” value ([2]; treating amount 10 mg/kg + UVB irradiation) was 0.16 ± 0.08 nmol/mg protein. For the same compound, the “TBARS (nmol/mg protein)” value ([2]; treating amount 30 mg/kg + UVB irradiation) was 0.07 ± 0.03 nmol/mg protein, the “average life span of a cell” value [3] was 76 days and the “life span, times as long as that of a control” value [3] was 2.1 times. The “fluorescence lower than that of a control” value [4] was 66.7%, the “telomere shortening speed delayed, comparing to control” value [5] was 2.1 times and the “maximum PDL” value ([5]; control 14.1) was 29.9.

Source: US7763287B2, “Extract of Cercis chinensis having anti-oxidant activity and anti-aging activity, and cosmetical composition containing the extract for anti-oxidation, skin-aging protection and wrinkle improvement” (Hankook Pharm. Co., Inc., priority 2002, dated 2010)
